Experimental data taken from patent US20250129104A1, “7H-PYRROLO[2,3-D]PYRIMIDINES AND PREPARATION AND USES THEREOF” (BioSplice Therapeutics, Inc., priority 2021, published 2025).
pEC50: −log10 of the molar value.

molecular target: recombinant DYRK1A kinase (Homo sapiens (Human), UniProt Q13627); experiment: DYRK1A kinase assay (Ser/Thr 18 peptide Z-lyte FRET assay); assay type: biochemical; settings: DYRK1A kinase activity; 15 μM ATP, 1 h room temperature; method text calls the value IC50
Method: Representative compounds were screened using the assay procedure for DYRK1A kinase activity as described below.
Each compound was dissolved in DMSO as a 10 mM stock and used to prepare compound source plates. Serial dilution (1:3, 11-point dose-response curves from 10 μM to 0.00016 μM) and compound transfer was performed using the ECHO 550 (Labcyte, Sunnyvale, CA) into 1536-well black-walled round bottom plates (Corning).
The DYRK1A kinase assay was run using the Ser/Thr 18 peptide Z-lyte assay kit according to manufacturer's instructions (Life Technologies—a Division of Thermo-Fisher). This is a non-radioactive assay using fluorescence resonance energy transfer (FRET) between coumarin and fluorescein to detect kinase activity which is represented as a ratio of coumarin emission/fluorescein emission.
Briefly, recombinant DYRK1A kinase, ATP and Ser/Thr peptide 18 were prepared in 1× Kinase buffer to final concentrations of 0.25 μg/mL, 15 μM, and 4 μM respectively. The mixture was allowed to incubate with the representative compounds for one hour at room temperature. All reactions were performed in duplicate. Unphosphorylated (“0% Control”) and phosphorylated (“100% control”) forms of Ser/Thr 18 served as control reactions. Additionally, an 11-point dose-response curve of Staurosporine (1 uM top) was run to serve as a positive compound control.
After incubation, Development Reagent A was diluted in Development Buffer then added to the reaction and allowed to further incubate for one hour at room temperature. The plate was read at Ex 400 Em […] to detect the coumarin signal and Ex 400 Em 520 to measure the signal (EnVision Multilabel Plate Reader, PerkinElmer).
The Emission ratio (Em) was calculated as a ratio of the coumarin (C) emission signal (at 445 nm)/Fluorescein (F) emission signal (at 520 nm). The percent phosphorylation was then calculated using the following formula: [1−((Em ratio×F100%)−C100%)/((C0%−C100%)+(Em ratio×(F100%−F0%)))]. Dose-response curves were generated, and inhibitory concentration (IC50) values were calculated using non-linear regression curve fit in the Dotmatics' Studies Software (Bishops Stortford, UK).

| Molecule | pEC50 |
| --- | --- |
| Cc1nc2cnc(-c3c[nH]c4nc(C5CCC5)ncc34)cc2n1C(C)C [Compound 628, 6-(2-Cyclobutyl-7H-pyrrolo[2,3-d]pyrimidin-5-yl)-1-isopropyl-2-methyl-1H-imidazo[4,5-c]pyridine] | 6.10 |
| 5-(2-Cyclopropyl-7H-pyrrolo[2,3-d]pyrimidin-5-yl)-N-methyl-N-(tetrahydro-2H-pyran-4-yl)pyrazolo[1,5-a]pyridine-3-carboxamide [Compound 1552] | 6.71 |
| COC[C@@H](C)Nc1nc(OC)c2c(-c3ccn4nccc4c3)c[nH]c2n1 [Compound 2205, (R)-4-Methoxy-N-(1-methoxypropan-2-yl)-5-(pyrazolo[1,5-a]pyridin-5-yl)-7H-pyrrolo[2,3-d]pyrimidin-2-amine] | 7.10 |
| c1cnc2ccc(-c3c[nH]c4ncnc(N[C@H]5CC[C@H](N6CCOCC6)CC5)c34)cc2c1 [Compound 1898, N-(trans-4-Morpholinocyclohexyl)-5-(quinolin-6-yl)-7H-pyrrolo[2,3-d]pyrimidin-4-amine] | 8.12 |
| CN1CCN(c2ccc(CNc3ncc4c(-c5ccc6ncccc6c5)c[nH]c4n3)cn2)CC1 [Compound 1895, N-((6-(4-Methylpiperazin-1-yl)pyridin-3-yl)methyl)-5-(quinolin-6-yl)-7H-pyrrolo[2,3-d]pyrimidin-2-amine] | 8.44 |
| CC(C)Oc1nc(N[C@H]2CC[C@@](C)(O)CC2)nc2[nH]cc(-c3ccn4nccc4c3)c12 [Compound 2220, cis-4-((4-Isopropoxy-5-(pyrazolo[1,5-a]pyridin-5-yl)-7H-pyrrolo[2,3-d]pyrimidin-2-yl)amino)-1-methylcyclohexan-1-ol] | 7.18 |
| COc1nc(N[C@H]2CC[C@@](C)(O)CC2)nc2[nH]cc(-c3ccc4nccnc4c3)c12 [Compound 2231, cis-4-((4-Methoxy-5-(quinoxalin-6-yl)-7H-pyrrolo[2,3-d]pyrimidin-2-yl)amino)-1-methylcyclohexan-1-ol] | 8.66 |
| CNc1nc(N2CC3(CO)CCC2CC3)nc2[nH]cc(-c3ccn4nccc4n3)c12 [Compound 3459, (2-(4-(methylamino)-5-(pyrazolo[1,5-a]pyrimidin-5-yl)-7H-pyrrolo[2,3-d]pyrimidin-2-yl)-2-azabicyclo[2.2.2]octan-4-yl)methanol] | 6.68 |
| CN1CCC(Nc2ncc3c(-c4ccn5ncc(-c6cnn(C)c6)c5c4)c[nH]c3n2)CC1 [Compound 1190, 5-(3-(1-Methyl-1H-pyrazol-4-yl)pyrazolo[1,5-a]pyridin-5-yl)-N-(1-methylpiperidin-4-yl)-7H-pyrrolo[2,3-d]pyrimidin-2-amine] | 8.52 |
| COc1nc(NC2[C@H]3COC[C@@H]23)nc2[nH]cc(-c3ccn4nccc4c3)c12 (stereo partly drawn) [Compound 2323, N-((1R,5S,6r)-3-Oxabicyclo[3.1.0]hexan-6-yl)-4-methoxy-5-(pyrazolo[1,5-a]pyridin-5-yl)-7H-pyrrolo[2,3-d]pyrimidin-2-amine] | 9.05 |
| CN(C)C(=O)c1cnn2ccc(-c3c[nH]c4nc(C5CC5)ncc34)cc12 [Compound 1245, 5-(2-Cyclopropyl-7H-pyrrolo[2,3-d]pyrimidin-5-yl)-N,N-dimethylpyrazolo [1,5-a]pyridine-3-carboxamide] | 6.74 |
| CN1CCC(Nc2ncc3c(-c4ccc5c(c4)OC(C)(C)CC5=O)c[nH]c3n2)CC1 [Compound 1801, 2,2-Dimethyl-7-(2-((1-methylpiperidin-4-yl)amino)-7H-pyrrolo[2,3-d]pyrimidin-5-yl)chroman-4-one] | 7.17 |
| COc1nc(N[C@H]2CC[C@@H](OC)CC2)nc2[nH]cc(-c3ccn4ncnc4c3)c12 [Compound 3384, 5-([1,2,4]Triazolo[1,5-a]pyridin-7-yl)-4-methoxy-N-(cis-4-methoxycyclohexyl)-7H-pyrrolo[2,3-d]pyrimidin-2-amine] | 8.92 |
| COc1nc(NCC(C)(C)F)nc2[nH]cc(-c3ccn4nccc4c3)c12 [Compound 2305, N-(2-Fluoro-2-methylpropyl)-4-methoxy-5-(pyrazolo[1,5-a]pyridin-5-yl)-7H-pyrrolo[2,3-d]pyrimidin-2-amine] | 7.66 |
| COc1nc(N[C@H]2CCCOC2)nc2[nH]cc(-c3ccn4nccc4c3)c12 [Compound 2315, (S)-4-Methoxy-5-(pyrazolo[1,5-a]pyridin-5-yl)-N-(tetrahydro-2H-pyran-3-yl)-7H-pyrrolo[2,3-d]pyrimidin-2-amine] | 6.92 |
| COc1nc(N[C@H]2CC[C@@H](OC(F)F)CC2)nc2[nH]cc(-c3ccc4nc(C)n(CC(F)F)c4n3)c12 [Compound 2281, 5-(3-(2,2-Difluoroethyl)-2-methyl-3H-imidazo[4,5-b]pyridin-5-yl)-N-(cis-4-(difluoromethoxy)cyclohexyl)-4-methoxy-7H-pyrrolo[2,3-d]pyrimidin-2-amine] | 6.57 |
| COc1nc(NC2CCN(C)CC2)nc2[nH]cc(-c3ccc4nnn(C)c4c3)c12 [Compound 2195, 4-Methoxy-5-(1-methyl-1H-benzo[d][1,2,3]triazol-6-yl)-N-(1-methylpiperidin-4-yl)-7H-pyrrolo[2,3-d]pyrimidin-2-amine] | 8.03 |

Next, values leading:

| pEC50 | Molecule |
| --- | --- |
| 8.01 | Cc1cnc2ccc(-c3c[nH]c4nc(NC5CCN(C)CC5)ncc34)nn12 [Compound 1057, 5-(3-Methylimidazo[1,2-b]pyridazin-6-yl)-N-(1-methylpiperidin-4-yl)-7H-pyrrolo[2,3-d]pyrimidin-2-amine] |
| 6.16 | FC(F)(F)O[C@H]1CC[C@@H](Nc2ncc3c(-c4ccn5nccc5c4)c[nH]c3n2)CC1 [Compound 2104, 5-(Pyrazolo[1,5-a]pyridin-5-yl)-N-(cis-4-(trifluoromethoxy)cyclohexyl)-7H-pyrrolo[2,3-d]pyrimidin-2-amine] |
| 8.26 | C[C@@H](Nc1ncc2c(-c3ccc4ncc(F)n4c3)c[nH]c2n1)C(F)(F)F [Compound 158, (R)-5-(3-Fluoroimidazo[1,2-a]pyridin-6-yl)-N-(1,1,1-trifluoropropan-2-yl)-7H-pyrrolo[2,3-d]pyrimidin-2-amine] |
| 7.68 | CC(C)(F)CNc1ncc2c(-c3ccn4ncc(F)c4n3)c[nH]c2n1 [Compound 1678, N-(2-Fluoro-2-methylpropyl)-5-(3-fluoropyrazolo[1,5-a]pyrimidin-5-yl)-7H-pyrrolo[2,3-d]pyrimidin-2-amine] |
| 8.14 | CCn1nnc2ccc(-c3c[nH]c4nc(NCC(C)(C)F)ncc34)cc21 [Compound 865, 5-(1-Ethyl-1H-benzo[d][1,2,3]triazol-6-yl)-N-(2-fluoro-2-methylpropyl)-7H-pyrrolo[2,3-d]pyrimidin-2-amine] |
| 6.63 | COc1ccc(-c2c[nH]c3nc(NCC(C)(C)F)ncc23)cc1 [Compound 1, N-(2-Fluoro-2-methylpropyl)-5-(4-methoxyphenyl)-7H-pyrrolo[2,3-d]pyrimidin-2-amine] |
| 8.54 | Cn1nnc2ccc(-c3c[nH]c4nc(NCC(C)(C)F)ncc34)cc21 [Compound 822, N-(2-Fluoro-2-methylpropyl)-5-(1-methyl-1H-benzo[d][1,2,3]triazol-6-yl)-7H-pyrrolo[2,3-d]pyrimidin-2-amine] |
| 8.54 | CO[C@H]1C[C@@H](Nc2ncc3c(-c4ccn5nccc5n4)c[nH]c3n2)C1 [Compound 2070, N-(cis-3-Methoxycyclobutyl)-5-(pyrazolo[1,5-a]pyrimidin-5-yl)-7H-pyrrolo [2,3-d]pyrimidin-2-amine] |
| 8.22 | Cn1nnc2ccc(-c3c[nH]c4nc(NCC(C)(F)F)ncc34)cc21 [Compound 823, N-(2,2-Difluoropropyl)-5-(1-methyl-1H-benzo[d][1,2,3]triazol-6-yl)-7H-pyrrolo[2,3-d]pyrimidin-2-amine] |
| 7.66 | Cn1cc(-c2c[nH]c3nc(NCC(C)(C)F)ncc23)ccc1=O [Compound 3, 5-(2-((2-Fluoro-2-methylpropyl)amino)-7H-pyrrolo[2,3-d]pyrimidin-5-yl)-1-methylpyridin-2(1H)-one] |
| 6.11 | COc1ncc(-c2c[nH]c3nc(NCC(C)(C)F)ncc23)cn1 [Compound 9, N-(2-Fluoro-2-methylpropyl)-5-(2-methoxypyrimidin-5-yl)-7H-pyrrolo[2,3-d]pyrimidin-2-amine] |
| 7.55 | CN1CCC(Nc2ncc3c(-c4ccn5nccc5c4)c[nH]c3n2)CC1 [Compound 1146, N-(1-Methylpiperidin-4-yl)-5-(pyrazolo[1,5-a]pyridin-5-yl)-7H-pyrrolo[2,3-d]pyrimidin-2-amine] |
| 6.67 | CC(C)Cc1ncc2c(-c3ccn4nccc4n3)c[nH]c2n1 [Compound 1636, 2-Isobutyl-5-(pyrazolo[1,5-a]pyrimidin-5-yl)-7H-pyrrolo[2,3-d]pyrimidine] |
| 6.82 | CC(C)(C)Cc1ncc2c(-c3cnc4nccn4c3)c[nH]c2n1 [Compound 490, 5-(Imidazo[1,2-a]pyrimidin-6-yl)-2-neopentyl-7H-pyrrolo[2,3-d]pyrimidine] |
